Measured values published in ChEMBL document CHEMBL5727767, “1,2-substituted cyclopentanes as orexin receptor antagonists” (2020).

How the values were obtained:
[1] = target: T1, Orexin/Hypocretin receptor type 1 (Homo sapiens, UniProt O43613); type: cell-based
T1 sequence (O43613 whole entry): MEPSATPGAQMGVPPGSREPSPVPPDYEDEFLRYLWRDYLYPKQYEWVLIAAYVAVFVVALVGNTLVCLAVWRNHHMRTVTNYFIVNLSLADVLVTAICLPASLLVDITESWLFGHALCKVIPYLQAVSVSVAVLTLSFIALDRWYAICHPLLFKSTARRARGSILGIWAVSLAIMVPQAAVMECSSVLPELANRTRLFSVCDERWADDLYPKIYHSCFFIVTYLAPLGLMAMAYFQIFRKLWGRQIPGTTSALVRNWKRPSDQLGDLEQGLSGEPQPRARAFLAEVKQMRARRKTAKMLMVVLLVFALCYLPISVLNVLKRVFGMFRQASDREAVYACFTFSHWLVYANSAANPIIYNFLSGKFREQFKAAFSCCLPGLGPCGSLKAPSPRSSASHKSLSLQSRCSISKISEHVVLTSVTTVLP

Orexin receptor type 2 = target: T2, Orexin receptor type 2 (Homo sapiens, UniProt O43614); type: cell-based
T2 sequence (O43614 whole entry): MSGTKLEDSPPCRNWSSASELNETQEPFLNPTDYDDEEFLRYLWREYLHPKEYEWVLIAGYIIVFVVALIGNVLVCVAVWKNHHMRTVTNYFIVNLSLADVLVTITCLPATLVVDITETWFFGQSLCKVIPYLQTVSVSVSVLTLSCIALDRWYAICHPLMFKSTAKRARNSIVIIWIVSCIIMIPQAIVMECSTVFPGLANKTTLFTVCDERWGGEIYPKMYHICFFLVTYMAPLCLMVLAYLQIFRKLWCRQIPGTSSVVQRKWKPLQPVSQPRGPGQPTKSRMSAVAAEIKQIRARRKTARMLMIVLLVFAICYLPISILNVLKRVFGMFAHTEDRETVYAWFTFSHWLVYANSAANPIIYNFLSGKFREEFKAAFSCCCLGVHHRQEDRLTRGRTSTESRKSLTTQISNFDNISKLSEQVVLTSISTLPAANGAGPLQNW

With `Cc1ccc(-n2nccn2)c(C(=O)N[C@@H]2CCC[C@@H]2Nc2ccc(Cl)cn2)c1` the IC50 [1] was 270 nM and the IC50 (Orexin receptor type 2) was greater than 10000 nM.
